Measured values from patent US20160279187A1, “CALPAIN INHIBITORS FOR IBD AND COLORECTAL CANCER TREATMENT” (UNIVERSITY OF HAWAII, priority 2013, published 2016).
Where a SMILES comes first, the peptide text is derived from it. The star is where a group is joined. Cbz = O=C(OCc1ccccc1)*; CH2F = FC*

Key:
[1] = test system: Bone marrow derived macrophages (BMDM); assay: cytokine production by activated bone marrow derived macrophages (CBA); assay type: cell-based, mouse; conditions: 20 μg/ml; TNFα primed, E. faecalis activated BMDM
Description: Bone marrow derived macrophages (BMDM) were prepared as previously described by methods known to those skilled in the art. On day 5 of culture, 2×10^6 BMDM were seeded in 6-well plates and the following day were primed for 18 h with TNFα (20 ng/mL), followed by 1 h stimulation with E. faecalis (1 μg/mL; ATCC). Stimulation with E. faecalis was conducted in the presence of the zLLY-CH2F calpain-2 inhibitor (20 μg/mL) or DMSO as a control. Media was removed from treated BMDM, centrifuged at 300×g for 5 min and supernatent analyzed using the Cytometric Bead Array Mouse Inflammation Kit (BD Biosciences, San Jose, Calif.). Cytokine data were analyzed using Flowjo software (Ashland, Oreg.) and GraphPad Prism version 4.0 (GraphPad, La Jolla, Calif.). Cell pellets were lysed and analyzed for IκB and NFκB by Western blot as previously described (Miyazaki, T. et al. Journal of Atherosclerosis and Thrombosis 20, 228-237, 2013). In other experiments, mouse CT-26.WT and human HT-29 colon cancer cells were plated in 96-well plates at 10^3 cells/well with 20 μg/mL inhibitor or DMSO, followed by analyses for IκB and NFκB by Western blot as described above for BMDM. For proliferation assays, fresh media with 20 μg/mL inhibitor or DMSO were added every 2 d. Each day 4 wells were quantified using Celltiter MTS reagent (Promega) and the resulting signal was used to generate a proliferation curve. Calpain activity was measured using a Calpain activity assay kit (BioVision, Inc., Milpitas, Calif.) as previously described. Colons were harvested on day 4 and calpain activity measured. Enzyme-linked immunosorbant assay (ELISA) analyses of cecum hemoglobin has been previously described (Miyazaki, T. et al. Journal of Atherosclerosis and Thrombosis 20, 228-237, 2013).
To determine if a similar mechanism may be contributing to the effect of the calpain-2 inhibition in the DSS model of colitis, macrophages were analyzed for NFκB activation and inflammatory cytokine secretion. Bone marrow derived macrophages were primed […] with TNFα (20 ng/ml) and activated with E. faecalis (1 μg/ml) for 1 h in the presence or absence of calpain-2 inhibitor (20 μg/ml). Supernatants were evaluated for a panel of cytokines including IFNγ, TNFα, IL-6, and MCP-1, IL-10, and IL-12. Real-time PCR was performed on total RNA extracted from colon tissues to access levels of cytokines. Media was collected from wells and cytokines assessed by CBA kit (BD Biosciences). For IκB blotting cells were lysed and SDS-PAGE was performed. Membranes were stained with anti-IκB (Cell Signalling) and anti-βactin (Santa Cruz). For NfκB blotting an NFκB Activation Kit (Five Photon) was used to isolate nuclear fractions. These fractions were transferred using SDS-PAGE. The membranes were stained with anti-NFκB (Santa Cruz) or anti-TATA (Abcam). Data are mean±SE (n=3) and represent results from three independent experiments. *p<0.05; one way ANOVA followed by Tukey post-test. […] Importantly, those cytokines most affected by the calpain-2 are regulated by NFκB.

[2] = test system: IκB / NFκB in TNFα primed macrophages; assay: IκB and nuclear NFκB western blot in activated macrophages; assay type: cell-based, mouse; conditions: vs DMSO
Description: Bone marrow derived macrophages (BMDM) were prepared as previously described by methods known to those skilled in the art. On day 5 of culture, 2×10^6 BMDM were seeded in 6-well plates and the following day were primed for 18 h with TNFα (20 ng/mL), followed by 1 h stimulation with E. faecalis (1 μg/mL; ATCC). Stimulation with E. faecalis was conducted in the presence of the zLLY-CH2F calpain-2 inhibitor (20 μg/mL) or DMSO as a control. Media was removed from treated BMDM, centrifuged at 300×g for 5 min and supernatent analyzed using the Cytometric Bead Array Mouse Inflammation Kit (BD Biosciences, San Jose, Calif.). Cytokine data were analyzed using Flowjo software (Ashland, Oreg.) and GraphPad Prism version 4.0 (GraphPad, La Jolla, Calif.). Cell pellets were lysed and analyzed for IκB and NFκB by Western blot as previously described (Miyazaki, T. et al. Journal of Atherosclerosis and Thrombosis 20, 228-237, 2013). […] Each day 4 wells were quantified using Celltiter MTS reagent (Promega) and the resulting signal was used to generate a proliferation curve. Calpain activity was measured using a Calpain activity assay kit (BioVision, Inc., Milpitas, Calif.) as previously described. Colons were harvested on day 4 and calpain activity measured. […] Supernatants were evaluated for a panel of cytokines including IFNγ, TNFα, IL-6, and MCP-1, IL-10, and IL-12. […]

CC(C)C[C@H](NC(=O)OCc1ccccc1)C(=O)N[C@@H](CC(C)C)C(=O)N[C@@H](Cc1ccc(O)cc1)C(=O)CF [zLLY-CH2F, Z-LLY-CH2F] (Cbz-Leu-Leu-Tyr-CH2F)
production of IFNγ [1]: significant decrease | production of IL-6 [1]: significant decrease | production of IL-10 [1]: not significantly affected | production of IL-12 [1]: not significantly affected | production of MCP-1 [1]: significant decrease | production of TNFα [1]: significant decrease | IκB degradation [2]: decreased | NFκB localization to the nucleus [2]: decreased
